Values of other authors, collected in patent US4801444A, “Medicinal preparation for individual prevention of venereal diseases and treatment of urogenital trichomoniasis” (Poltavsky Meditsinsky Stomatologichesky Institut, priority 1988, dated 1989).
Like-named read-outs stand apart in the source and are kept apart here.

Tests used:
trichomonads = details: imidazole medicines, clinical use
venereal diseases [1] = details: 0.05-0.1 percent solution
venereal diseases [2] = details: 0.05-0.1 percent solution; remark: listed apart in the source
[3] = 0.05-0.1 percent solution, clinical application
[4] = tested on: urogenital trichomoniasis

CCS(=O)(=O)CCn1c([N+](=O)[O-])cnc1C [Tinidazole]
relapsing of a specific process (trichomonads): up to 8.4% of all cases

[H]/N=C(\N/C(=N/[H])NCCCCCCNC(=N)NC(=N)Nc1ccc(Cl)cc1)Nc1ccc(Cl)cc1 [Chlorhexidine]
bactericidal activity in vitro (venereal diseases [1]): adequate bactericidal activity | bactericidal activity in tests on animals (venereal diseases [2]): adequate bactericidal activity | effect upon skin and genital mucosa in man [3]: irritating and withering effect upon the skin and genital mucosa

O=[N+]([O-])[O-].[Ag+] [lapis]
efficacy in topical treatment of urogenital trichomoniasis ([4]; topical (external)): insufficiently efficacious

Cc1ncc([N+](=O)[O-])n1CCO [Metronidazole]
relapsing of a specific process (trichomonads): up to 8.4% of all cases

O=S(=O)([O-])[O-].[Cu+2] [copper sulphate]
efficacy in topical treatment of urogenital trichomoniasis ([4]; topical (external)): insufficiently efficacious

O=C(N[C@H](CO)[C@H](O)c1ccc([N+](=O)[O-])cc1)C(Cl)Cl [laevomycetin]
efficacy in topical treatment of urogenital trichomoniasis ([4]; topical (external)): insufficiently efficacious

OB(O)O [boric acid]
efficacy in topical treatment of urogenital trichomoniasis ([4]; in vivo): insufficiently efficacious

O=S(=O)([O-])[O-].[Zn+2] [zinc sulphate]
efficacy in topical treatment of urogenital trichomoniasis ([4]; topical (external)): insufficiently efficacious

CC(=O)Nc1cc([As](=O)(O)O)ccc1O [Acetarsol]
efficacy in topical treatment of urogenital trichomoniasis ([4]; topical (external)): insufficiently efficacious
